The values that follow come from ChEMBL document CHEMBL1152181, “Rational design of novel glycomimetics: inhibitors of concanavalin A” (Bioorg Med Chem Lett, 2008).

Chain of Concanavalin-A (Canavalia ensiformis) (P02866 whole entry): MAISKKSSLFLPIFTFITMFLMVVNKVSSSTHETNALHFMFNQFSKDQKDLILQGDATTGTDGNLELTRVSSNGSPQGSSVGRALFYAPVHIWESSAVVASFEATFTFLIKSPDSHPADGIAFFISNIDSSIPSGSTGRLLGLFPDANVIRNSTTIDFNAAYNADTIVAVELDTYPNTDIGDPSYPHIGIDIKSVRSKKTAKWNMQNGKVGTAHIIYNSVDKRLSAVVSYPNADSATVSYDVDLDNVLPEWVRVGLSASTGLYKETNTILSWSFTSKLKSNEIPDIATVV

The target in one assay is Concanavalin-A (Canavalia ensiformis, UniProt P02866). In words: Inhibition of Canavalia ensiformis concanavalin A binding to yeast mannan by ELLA.
Chain of Concanavalin-A (P02866 whole entry): as above
As for `Oc1cc(O)c2c(c1)OC(c1ccc(O)c(O)c1)C(O)C2c1c(O)cc(O)c2c1CC(c1ccc(O)c(O)c1)C(O)C2` (configuration not stated), the IC50 (commonly the concentration that gives 50% inhibition) worked out at 479 µM.

For the molecule `NS(=O)(=O)c1ccc(/N=N/c2cccnc2O)cc1`, the IC50 came to 234 µM. Still for that read-out and setting: for `NNS(=O)(=O)c1cc(C(=O)O)cc(C(=O)O)c1` the value was 19 µM; for `CO[C@H]1O[C@H](CO)[C@@H](O)[C@H](O)[C@@H]1O`, 350 µM; for `NS(=O)(=O)c1ccc(/N=N/c2nc3nc(O)nc(O)c3[nH]2)cc1`, 615 µM. `O=C(O)C1CCCCC1c1c2ccc(=O)c(O)c-2oc2c(O)c(O)ccc12` (configuration not stated) had an IC50 of 29 µM.

The next assay concerns the target Concanavalin-A (Canavalia ensiformis) (UniProt P02866). In words: Inhibition of Canavalia ensiformis concanavalin A binding to yeast mannan at 11 mM by ELLA.
Regarding `NS(=O)(=O)c1ccc(/N=N/c2cnc(O)c(O)c2)cc1`, the inhibition (as a rule, the change of the read-out against control, counted positive when it falls) came out at 49%.
